Patent US20250282799A1, “SUBSTITUTED PYRIDO[4,3-d]PYRIMIDINES AS KRAS MODULATORS” (Alterome Therapeutics, Inc., priority 2023, published 2025)

target: KRAS (G12V)/CRAF (Homo sapiens (Human), UniProt P01116, G12V); test: TR-FRET biochemical KRAS:CRAF protein:protein interaction assay, KRAS (G12V); format: binding; conditions: GMPPNP loaded Biotin-KRAS (G12V), FLAG CRAF RBD; read-out: TR-Fret_PPI KRAS (G12V)/CRAF IC50
Summary of the method: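 Compound (10-point 3-fold series, 1% DMSO final) preincubated 30 min at room temperature with 20 nM biotin-KRAS mutant loaded with GMPPNP, in Hepes pH7.3 buffer with 5 mM MgCl2 and 10 uM GMP-PNP. Then 100 nM FLAG-CRAF RBD for 150 min, 1 nM Tb-anti-FLAG/5 nM SA-XL665 for 90 min; IC50 from normalized 665/620 ratio, 4-parameter fit.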

Chain of KRAS (G12V)/CRAF (P01116-2 other isoform, or with tags, fused parts or gaps G12V): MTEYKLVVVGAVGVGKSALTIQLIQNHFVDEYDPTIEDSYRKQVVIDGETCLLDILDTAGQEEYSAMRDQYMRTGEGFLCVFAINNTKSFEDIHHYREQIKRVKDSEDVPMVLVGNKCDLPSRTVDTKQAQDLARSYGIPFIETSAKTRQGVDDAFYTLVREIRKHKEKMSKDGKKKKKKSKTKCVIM

SMILES	IC50
[2H]C([2H])(Oc1nc(N2CCCC[C@H]3[C@H](F)[C@H]32)c2cnc(-c3cc(N)cc4ccc(F)c(C#C)c34)c(F)c2n1)[C@@]12CCCN1C[C@H](F)C2 [Example 82, 5-Ethynyl-6-fluoro-4-(8-fluoro-4-((1S,7R,8S)-8-fluoro-2-azabicyclo[5.1.0]octan-2-yl)-2-(((2R,7aS)-2-fluorotetrahydro-1H-pyrrolizin-7a(5H)-yl)methoxy-d2)pyrido[4,3-d]pyrimidin-7-yl)naphthalen-2-amine]	0.0392 µM
[2H]C([2H])(Oc1nc(N2CCOC[C@H]3[C@H](F)[C@H]32)c2cnc(-c3cc(N)cc4ccc(F)c(C#C)c34)c(F)c2n1)[C@@]12CCCN1C[C@H](F)C2 [Example 87, 5-Ethynyl-6-fluoro-4-(8-fluoro-4-((1S,7S,8S)-8-fluoro-5-oxa-2-azabicyclo[5.1.0]octan-2-yl)-2-(((2R,7aS)-2-fluorotetrahydro-1H-pyrrolizin-7a(5H)-yl)methoxy-d2)pyrido[4,3-d]pyrimidin-7-yl)naphthalen-2-amine]	0.06 µM
[2H]C([2H])(Oc1nc(N2CCOC[C@H]3[C@H](F)[C@H]32)c2cnc(-c3cc(N)cc4cc(F)c(F)c(C#C)c34)c(F)c2n1)[C@@]12CCCN1C[C@H](F)C2 [Example 28, 5-Ethynyl-6,7-difluoro-4-(8-fluoro-4-((1S,7S,8S)-8-fluoro-5-oxa-2-azabicyclo[5.1.0]octan-2-yl)-2-(((2R,7aS)-2-fluorotetrahydro-1H-pyrrolizin-7a(5H)-yl)methoxy-d2)pyrido[4,3-d]pyrimidin-7-yl)naphthalen-2-amine]	0.0897 µM
[2H]C([2H])(Oc1nc(N2CCCC[C@H]3[C@H](F)[C@H]32)c2cnc(-c3cc(N)cc4cc(F)c(F)c(C#C)c34)c(F)c2n1)[C@@]12CCCN1C[C@H](F)C2 [Example 16, 5-Ethynyl-6,7-difluoro-4-(8-fluoro-4-((1S,7R,8S)-8-fluoro-2-azabicyclo[5.1.0]octan-2-yl)-2-(((2R,7aS)-2-fluorotetrahydro-1H-pyrrolizin-7a(5H)-yl)methoxy-d2)pyrido[4,3-d]pyrimidin-7-yl)naphthalen-2-amine]	0.0567 µM
